These results are taken from article PMC11088557 (Clinical Drug Investigation, 2024).

Values joined by “and” are separate entries in the source; they are usually repeats but may differ in a detail not shown here. Equal entries are not always repeated.

The conditions of data set [1]: combination vs MCC alone.
Data set [2] relates to CYP3A4. As to conditions: cited from earlier work.
The conditions of data set [3]: viloxazine ER 900 mg qd, steady state.
For data set [4] the following is noted: cited from earlier work.
The conditions of data set [5]: viloxazine ER 900 mg/day from Day 3; Day 4; p values > 0.05.
For data set [6] the following is noted: cited from earlier work. This is another data set of the same source.
Data set [7] has as its system CYP2C9. As to conditions: in vitro study; cited from earlier work.
Data set [8] concerns CYP2C8. The following applies: in vitro study; cited from earlier work.
The subject of data set [9] is CYP2B6. As to conditions: published in vitro study; cited from earlier work.
The subject of data set [10] is CYP1A2. The following applies: cited from earlier work.
The subject of data set [11] is CYP2C19. The following applies: in vitro study; cited from earlier work.
The subject of data set [12] is CYP2D6. As to conditions: cited from earlier work.

On to `COc1ccc2c(c1)[C@]13CCCC[C@@H]1[C@H](C2)N(C)CC3` [Dextromethorphan, dextromethorphan], for which the “prolongation of median Tmax with viloxazine ER vs MCC alone” value in data set [1] is given as 1 h.
With `CCOc1ccccc1OCC1CNCCO1` (stereo not shown) [viloxazine], the ki in data set [2] (in vitro, [midazolam]) is 26.8 µg/mL. Moreover, in data set [2] (published in vitro study), the “in vitro inhibition of CYP3A4/5” value is “weak inhibitor”. Besides, in data set [3], the “AUC24 higher in CYP2D6 PMs than EMs” value is 26% and 25%; the “Cmax higher in CYP2D6 PMs than EMs” value amounted to 21%; the “Cmin higher in CYP2D6 PMs than EMs” value is 33%. Also, in [4], the “5-hydoxyviloxazine metabolites, share of the metabolized fraction of the drug” value was “about 50%” and the dose excreted unchanged result was “approximately 22%”. Besides, in [5], the “attainment of steady state” value is on record as “second day of dosing”. In addition, in data set [6], the “change in Cmax when coadministered with paroxetine” value was “no changes” and the “increase in AUC when coadministered with paroxetine” value is recorded as under 35%. Besides, in data set [7], the “in vitro inhibition of CYP2C9” value is listed as “no meaningful inhibition”. For the same molecule, the “in vitro inhibition of CYP2C8” value in data set [8] is recorded as “no meaningful inhibition”. In addition, the “in vitro inhibition of CYP2B6” value in data set [9] was “weak inhibitor”. In addition, in [10] (in vitro, [caffeine]), the ki was 0.124 µg/mL. Also, the “in vitro inhibition of CYP1A2” value in data set [10] (published in vitro study) is “strong, reversible inhibitor”. The “in vitro inhibition of CYP2C19” value in data set [11] is “no meaningful inhibition”. For the same molecule, in [12] (in vitro, [dextromethorphan]), the ki is 12.7 µg/mL. Moreover, in data set [12] (published in vitro study), the “in vitro inhibition of CYP2D6” value was “weak inhibitor”.
